# Source: patent US11667651B2, “Aminopyridine derivatives as phosphatidylinositol phosphate kinase inhibitors” (HiberCell, Inc., priority 2017, dated 2023)
# Experiments:
# PIP4K2B = molecular target: T1, PIP4K2B (Homo sapiens, UniProt P78356); assay: Trans-FI P kinase assay PIP4K2B (Table 4); type: biochemical; details: compounds listed under IC50 bins; read-out: Trans-FI P kinase assays: PIP4K2B IC50
# T1 construct: made in house; host or cells: E. coli
# T1 sequence (P78356 1-416): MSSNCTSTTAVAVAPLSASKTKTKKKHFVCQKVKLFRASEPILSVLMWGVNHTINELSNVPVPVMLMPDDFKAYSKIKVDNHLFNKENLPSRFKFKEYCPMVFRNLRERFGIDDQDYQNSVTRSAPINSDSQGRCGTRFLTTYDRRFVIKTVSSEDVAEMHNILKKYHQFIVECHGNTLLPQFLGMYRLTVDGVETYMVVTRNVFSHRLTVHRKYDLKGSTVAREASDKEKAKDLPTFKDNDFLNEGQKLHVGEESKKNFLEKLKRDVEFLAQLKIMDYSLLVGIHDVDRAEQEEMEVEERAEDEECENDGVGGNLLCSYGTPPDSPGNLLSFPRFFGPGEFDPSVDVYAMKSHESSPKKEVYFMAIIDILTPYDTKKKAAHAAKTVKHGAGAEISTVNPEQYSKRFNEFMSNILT
# From the text: GST tagged PIP4KtypeIIA and B enzymes were overexpressed in E. Coli and purified to >80% homogeneity. Phosphatidyl inositol-5-phosphate (PI5P, Cat. #850152, Avanti Polar Lipids Inc.) was used as the lipid substrate and phosphatidyl ethanolamine (DOPE 18:1, Cat. #850725, Avanti Polar Lipids Inc.) was used as the carrier lipid for assays. Ultrapure ATP and GTP was purchased from Bellbrooke Labs. ADP Glo reagents were obtained from Promega. Transcreener FI reagent was obtained from Bellbrooke labs.
# GST-tagged PIP4KtypeIIB (3.4 μL, 2.77 mg/mL) was diluted to 5 mL using HNE buffer to yield 5× enzyme stock (25 nM)
# Lipid Preparation: In a 10 mL pyrex glass vial, […] were suspended in 2.5 mL of HEPES buffer mix and 2.5 mL of H:E buffer. The contents were mixed and sonicated for 3 min to yield a translucent lipid stock.
# Compound Preparation: Compounds were stored as 5 mM stocks in neat DMSO as room temperature in glass vials. 5 mM stocks were diluted to 2 mM and then serially diluted (3×) in neat DMSO in 96 well polypropylene plates. From the serially diluted stocks, 3 μL was delivered into 250 μL of 25% DMSO (in water) to generate 5× compound stocks. Typically, the highest compound conc. was 24 μM.
# The assay volume was kept at 25 μL. To each well of the reaction plate, 10 μL of lipid stock (1:1 ratio PI5P:DOPE) was delivered. This was followed by the addition of 5 μL of compound in 25% DMSO. Then, to each well, 5 μL of 25 nM (5×) typeIIB enzyme was delivered. The contents were mixed well and incubated for 1 h at 27° C. After 1 h, reaction was initiated by adding 5 μL of 500 μM GTP and the contents were mixed well with a multi-channel pipetteman. The final concentration of the reagents are as follows: 50 mM HEPES, pH 7.3, 10 mM MgCl2, 20 mM NaCl, 0.01% v/v triton-X100, 5% DMSO, 100 μM GTP, 80 μM (2 μg) PI5P, 2 μg DOPE, and 5 nM PIP4KIIB Typically, the highest conc. of compounds was 4.8 μM and the lowest conc. was 0.
# After 2 h, the reaction was quenched by adding 25 μL of transcreener FI reagent. The contents were incubated at rt for 1 h and the Fluorescence (Ex: 584 Em: 623) was read using Molecular Devices Paradigm plate reader. […] The blanks were averaged and subtracted from all other wells. Using a calibration curve, RFU was converted to μM GDP (product). IC50 was calculated by plotting the residual activity (expressed as % No inhibitor control) vs. log [Inh. conc.]
# PIP4K2A = molecular target: T2, PIP4K2A (Homo sapiens, UniProt P48426); assay: Kinase Assay PIP4K2 A (Table 2); type: biochemical; set-up: 4 nM PIP4K2A (full length protein, SignalChem); purchased SignalChem; details: compounds listed under IC50 bins
# T2 sequence (P48426 1-406): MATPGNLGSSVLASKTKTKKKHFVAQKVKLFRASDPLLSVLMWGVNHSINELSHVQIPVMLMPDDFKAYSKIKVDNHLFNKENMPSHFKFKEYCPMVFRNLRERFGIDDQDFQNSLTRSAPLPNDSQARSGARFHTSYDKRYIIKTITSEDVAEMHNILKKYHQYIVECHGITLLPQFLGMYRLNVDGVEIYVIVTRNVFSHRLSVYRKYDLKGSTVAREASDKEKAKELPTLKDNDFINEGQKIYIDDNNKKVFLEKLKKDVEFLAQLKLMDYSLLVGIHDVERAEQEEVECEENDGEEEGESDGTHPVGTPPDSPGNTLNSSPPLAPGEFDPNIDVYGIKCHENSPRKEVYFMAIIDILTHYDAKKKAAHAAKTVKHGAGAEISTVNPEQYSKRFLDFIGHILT
# Method in brief: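 ADP-Glo luminescent read-out after 1 h room-temperature kinase reaction, started with 60 μM ATP solution following 15 min compound pre-incubation. Enzyme/substrate mix: 4 nM full-length PIP4K2A plus 100 μM PI(5)P diC8; buffer MOPS pH 7.2 with 25 mM MgCl2 and Tween 20. IC50 from 10-point, 3-fold titrations normalized to DMSO.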
Compound,IC50 (PIP4K2B) [nM],IC50 (PIP4K2A) [nM]
"CN1CC2(CCN(c3ccc(Nc4cnc5c(c4)N4C(=O)CC[C@H]4CO5)nc3)CC2)OC1=O [Example 279, (S)-2-((5-(3-methyl-2-oxo-1-oxa-3,8-diazaspiro[4.5]decan-8-yl)pyridin-2-yl)amino)-6,6a,7,8-tetrahydro-9H-pyrido[2,3-b]pyrrolo[1,2-d][1,4]oxazin-9-one]",> 1000,> 1000
"CN1CCN(c2nc(Nc3cnc4c(c3)N3C(=O)CC[C@H]3CO4)ncc2-c2ccc(N3CCCC3=O)cc2)CC1 [Example 281, (S)-2-((4-(4-methylpiperazin-1-yl)-5-(4-(2-oxopyrrolidin-1-yl)phenyl)pyrimidin-2-yl)amino)-6,6a,7,8-tetrahydro-9H-pyrido[2,3-b]pyrrolo[1,2-d][1,4]oxazin-9-one]",10 to 100,1 to 10
"COCc1cc(Nc2cnc3c(c2)N2C(=O)CC[C@H]2CO3)ncc1-c1ccc(-c2nocc2C)cc1 [Example 282, (S)-2-((4-(methoxymethyl)-5-(4-(4-methylisoxazol-3-yl)phenyl)pyridin-2-yl)amino)-6,6a,7,8-tetrahydro-9H-pyrido[2,3-b]pyrrolo[1,2-d][1,4]oxazin-9-one]",10 to 100,1 to 10
"Cc1conc1-c1ccc(-c2ccc(Nc3cnc4c(c3)N3C(=O)CC[C@H]3CO4)nc2)cc1 [Example 283, (S)-2-((5-(4-(4-methylisoxazol-3-yl)phenyl)pyridin-2-yl)amino)-6,6a,7,8-tetrahydro-9H-pyrido[2,3-b]pyrrolo[1,2-d][1,4]oxazin-9-one]",10 to 100,1 to 10
"O=C1CCCN1c1ccc(-c2cnc(Nc3cnc4c(c3)N3C(=O)CC[C@H]3CO4)cc2OC2CCC2)cc1 [Example 284, (S)-2-((4-cyclobutoxy-5-(4-(2-oxopyrrolidin-1-yl)phenyl)pyridin-2-yl)amino)-6,6a,7,8-tetrahydro-9H-pyrido[2,3-b]pyrrolo[1,2-d][1,4]oxazin-9-one]",1 to 10,≤ 1
"Cn1cnnc1-c1ccc(-c2cnc(Nc3cnc4c(c3)N3C(=O)CC[C@H]3CO4)cc2C2CC2)cc1 [Example 285, (S)-2-((4-cyclopropyl-5-(4-(4-methyl-4H-1,2,4-triazol-3-yl)phenyl)pyridin-2-yl)amino)-6,6a,7,8-tetrahydro-9H-pyrido[2,3-b]pyrrolo[1,2-d][1,4]oxazin-9-one]",10 to 100,10 to 100
"Cn1cnnc1-c1ccc(-c2ccc(Nc3cnc4c(c3)N3C(=O)CC[C@H]3CO4)nc2)cc1 [Example 291, (S)-2-((5-(4-(4-methyl-4H-1,2,4-triazol-3-yl)phenyl)pyridin-2-yl)amino)-6,6a,7,8-tetrahydro-9H-pyrido[2,3-b]pyrrolo[1,2-d][1,4]oxazin-9-one]",10 to 100,10 to 100
"O=C(COc1cccc2c1C(=O)N(C1CCC(=O)NC1=O)C2=O)NCCCC(=O)Nc1ccc(C(=O)Nc2cncc(Nc3ccc(-c4ccc(N5CCCC5=O)cc4)cn3)c2)cc1 (centres unmarked) [Example 292, 4-(4-(2-((2-(2,6-dioxopiperidin-3-yl)-1,3-dioxoisoindolin-4-yl)oxy)acetamido)butanamido)-N-(5-((5-(4-(2-oxopyrrolidin-1-yl)phenyl)pyridin-2-yl)amino)pyridin-3-yl)benzamide]",10 to 100,100 to 1000
"COCc1nc(Nc2cnc3c(c2)N2C(=O)CC[C@H]2CO3)ncc1-c1ccc(C(=O)N(C)C)cc1 [Example 293, (S)-4-(4-(methoxymethyl)-2-((9-oxo-6a,7,8,9-tetrahydro-6H-pyrido[2,3-b]pyrrolo[1,2-d][1,4]oxazin-2-yl)amino)pyrimidin-5-yl)-N,N-dimethylbenzamide]",10 to 100,10 to 100
"COc1nc(Nc2cnc3c(c2)N2C(=O)CC[C@H]2CO3)ncc1-c1ccc(C(=O)N(C)C)cc1 [Example 294, (S)-4-(4-methoxy-2-((9-oxo-6a,7,8,9-tetrahydro-6H-pyrido[2,3-b]pyrrolo[1,2-d][1,4]oxazin-2-yl)amino)pyrimidin-5-yl)-N,N-dimethylbenzamide]",1 to 10,1 to 10
"O=C1CCC(N2C(=O)c3cccc(NCCOCCOCCOCC(=O)Nc4ccc(C(=O)Nc5cncc(Nc6ccc(-c7ccc(N8CCCC8=O)cc7)cn6)c5)cc4)c3C2=O)C(=O)N1 (centres unmarked) [Example 296, 4-(2-(2-(2-(2-((2-(2,6-dioxopiperidin-3-yl)-1,3-dioxoisoindolin-4-yl)amino)ethoxy)ethoxy)ethoxy)acetamido)-N-(5-((5-(4-(2-oxopyrrolidin-1-yl)phenyl)pyridin-2-yl)amino)pyridin-3-yl)benzamide]",10 to 100,100 to 1000

# Further lines, results first:
IC50 (PIP4K2B) [nM],IC50 (PIP4K2A) [nM],Compound
1 to 10,≤ 1,"O=C1CCCN1c1ccc(-c2cnc(Nc3cnc4c(c3)N3C(=O)CC[C@H]3CO4)nc2N2CCOCC2)cc1 [Example 280, (S)-2-((4-morpholino-5-(4-(2-oxopyrrolidin-1-yl)phenyl)pyrimidin-2-yl)amino)-6,6a,7,8-tetrahydro-9H-pyrido[2,3-b]pyrrolo[1,2-d][1,4]oxazin-9-one]"
1 to 10,1 to 10,"COC1CN(c2nc(Nc3cnc4c(c3)N3C(=O)CC[C@H]3CO4)ncc2-c2ccc(N3CCCC3=O)cc2)C1 [Example 286, (S)-2-((4-(3-methoxyazetidin-1-yl)-5-(4-(2-oxopyrrolidin-1-yl)phenyl)pyrimidin-2-yl)amino)-6,6a,7,8-tetrahydro-9H-pyrido[2,3-b]pyrrolo[1,2-d][1,4]oxazin-9-one]"
1 to 10,1 to 10,"COc1nc(Nc2cnc3c(c2)N2C(=O)CC[C@H]2CO3)ncc1-c1ccc(-c2nncn2C)cc1 [Example 287, (S)-2-((4-methoxy-5-(4-(4-methyl-4H-1,2,4-triazol-3-yl)phenyl)pyrimidin-2-yl)amino)-6,6a,7,8-tetrahydro-9H-pyrido[2,3-b]pyrrolo[1,2-d][1,4]oxazin-9-one]"
1 to 10,≤ 1,"COc1nc(Nc2cnc3c(c2)N2C(=O)CC[C@H]2CO3)ncc1-c1ccc(-n2nncc2C)cc1 [Example 288, (S)-2-((4-methoxy-5-(4-(5-methyl-1H-1,2,3-triazol-1-yl)phenyl)pyrimidin-2-yl)amino)-6,6a,7,8-tetrahydro-9H-pyrido[2,3-b]pyrrolo[1,2-d][1,4]oxazin-9-one]"
1 to 10,1 to 10,"Cc1cnnn1-c1ccc(-c2ccc(Nc3cnc4c(c3)N3C(=O)CC[C@H]3CO4)nc2)cc1 [Example 289, (S)-2-((5-(4-(5-methyl-1H-1,2,3-triazol-1-yl)phenyl)pyridin-2-yl)amino)-6,6a,7,8-tetrahydro-9H-pyrido[2,3-b]pyrrolo[1,2-d][1,4]oxazin-9-one]"
